From patent publication US11319299B2, “Substituted carboxamides as inhibitors of WDR5 protein-protein binding” (PROPELLON THERAPEUTICS INC., priority 2016, dated 2022)
pKd: −log10 of the molar value.

Target: WDR5 (Homo sapiens (Human), UniProt P61964)
Experiment: Surface Plasmon Resonance (SPR) assay, KD and residence time
Type: binding
Details: surface plasmon resonance (SPR); read-out: WDR5 binding affinity (KD)

| SMILES | pKd |
| --- | --- |
| C[C@@H]1CN(c2cc(F)c(-c3c[nH]c(=O)c(F)c3)cc2NC(=O)c2c[nH]c(=O)cc2C(F)(F)F)C[C@H](C)N1C [Example 562, N-[4-fluoro-5-(5-fluoro-6-oxo-1H-pyridin-3-yl)-2-[(3R,5S)-3,4,5-trimethylpiperazin-1-yl]phenyl]-6-oxo-4-(trifluoromethyl)-1H-pyridine-3-carboxamide] | 9.04 |
| C[C@@H]1CN(c2cc(F)c(-c3cncc(NC(=O)OCc4ccccc4)c3)cc2NC(=O)c2c[nH]c(=O)cc2C(F)(F)F)C[C@H](C)N1C [Example 563, benzyl N-[5-[2-fluoro-5-[[6-oxo-4-(trifluoromethyl)-1H-pyridine-3-carbonyl]amino]-4-[(3R,5S)-3,4,5-trimethylpiperazin-1-yl]phenyl]pyridin-3-yl]carbamate] | 8.48 |
| C[C@@H]1CN(c2cc(F)c(-c3cc(F)c(=O)n(C)c3)cc2NC(=O)c2c[nH]c(=O)cc2C(F)(F)F)C[C@H](C)N1C [Example 564, N-[4-fluoro-5-(5-fluoro-1-methyl-6-oxopyridin-3-yl)-2-[(3R,5S)-3,4,5-trimethylpiperazin-1-yl]phenyl]-6-oxo-4-(trifluoromethyl)-1H-pyridine-3-carboxamide] | 8.82 |
| COc1ccc(C(=O)N2CC=C(c3cc(NC(=O)c4c[nH]c(=O)cc4C(F)(F)F)c(N4C[C@@H](C)N(C)[C@@H](C)C4)cc3F)CC2)cc1 [Example 565, N-[4-fluoro-5-[1-(4-methoxybenzoyl)-3,6-dihydro-2H-pyridin-4-yl]-2-[(3R,5S)-3,4,5-trimethylpiperazin-1-yl]phenyl]-6-oxo-4-(trifluoromethyl)-1H-pyridine-3-carboxamide] | 9.03 |
| C[C@@H]1CN(c2cc(F)c(-c3cnc4c(c3)CC(=O)N4)cc2NC(=O)c2c[nH]c(=O)cc2C(F)(F)F)C[C@H](C)N1C [Example 566, N-[4-fluoro-5-(2-oxo-1,3-dihydropyrrolo[2,3-b]pyridin-5-yl)-2-[(3R,5S)-3,4,5-trimethylpiperazin-1-yl]phenyl]-6-oxo-4-(trifluoromethyl)-1H-pyridine-3-carboxamide] | 9.05 |
| C[C@@H]1CN(c2cc(F)c(-c3ccn(C)c(=O)c3)cc2NC(=O)c2c[nH]c(=O)cc2C(F)(F)F)C[C@H](C)N1C [Example 567, N-[4-fluoro-5-(1-methyl-2-oxopyridin-4-yl)-2-[(3R,5S)-3,4,5-trimethylpiperazin-1-yl]phenyl]-6-oxo-4-(trifluoromethyl)-1H-pyridine-3-carboxamide] | 8.93 |
| C[C@@H]1CN(c2cc(F)c(-c3ccc(=O)n(C)c3)cc2NC(=O)c2c[nH]c(=O)cc2C(F)(F)F)C[C@H](C)N1C [Example 568, N-[4-fluoro-5-(1-methyl-6-oxopyridin-3-yl)-2-[(3R,5S)-3,4,5-trimethylpiperazin-1-yl]phenyl]-6-oxo-4-(trifluoromethyl)-1H-pyridine-3-carboxamide] | 8.34 |
| C[C@@H]1CN(c2cc(F)c(C3=CCN(C(=O)C4CCCCC4)CC3)cc2NC(=O)c2c[nH]c(=O)cc2C(F)(F)F)C[C@H](C)N1C [Example 569, N-[5-[1-(cyclohexanecarbonyl)-3,6-dihydro-2H-pyridin-4-yl]-4-fluoro-2-[(3R,5S)-3,4,5-trimethylpiperazin-1-yl]phenyl]-6-oxo-4-(trifluoromethyl)-1H-pyridine-3-carboxamide] | 8.70 |
| COCCCN(C)C1CCN(c2cc(F)c(-c3cnc(N4CCOCC4)nc3)cc2NC(=O)c2c[nH]c(=O)cc2C(F)(F)F)C1 (stereo not drawn) [Example 572, N-[4-fluoro-2-[3-[3-methoxypropyl(methyl)amino]pyrrolidin-1-yl]-5-(2-morpholin-4-ylpyrimidin-5-yl)phenyl]-6-oxo-4-(trifluoromethyl)-1H-pyridine-3-carboxamide] | 6.95 |
| C[C@@H]1CN(c2cc(F)c(C3=CCN(C(=O)c4cnccn4)CC3)cc2NC(=O)c2c[nH]c(=O)cc2C(F)(F)F)C[C@H](C)N1C [Example 573, N-[4-fluoro-5-[1-(pyrazine-2-carbonyl)-3,6-dihydro-2H-pyridin-4-yl]-2-[(3R,5S)-3,4,5-trimethylpiperazin-1-yl]phenyl]-6-oxo-4-(trifluoromethyl)-1H-pyridine-3-carboxamide] | 8.66 |
| COCCN(C)[C@@H]1CCN(c2cc(F)c(-c3cnc(N4CCOCC4)nc3)cc2NC(=O)c2c[nH]c(=O)cc2C(F)(F)F)C1 [Example 578, N-[4-fluoro-5-(2-morpholin-4-ylpyrimidin-5-yl)-2-[(3R)-3-[2-methoxyethyl(methyl)amino]pyrrolidin-1-yl]phenyl]-6-oxo-4-(trifluoromethyl)-1H-pyridine-3-carboxamide] | 7.77 |
| C[C@@H]1CN(c2cc(F)c(-c3ccc(S(C)(=O)=O)nc3)cc2NC(=O)c2c[nH]c(=O)cc2C(F)(F)F)C[C@H](C)N1C [Example 581, N-[4-fluoro-5-(6-methylsulfonylpyridin-3-yl)-2-[(3R,5S)-3,4,5-trimethylpiperazin-1-yl]phenyl]-6-oxo-4-(trifluoromethyl)-1H-pyridine-3-carboxamide] | 9.11 |
| C[C@@H]1CN(c2cc(F)c(-c3cnc(NS(C)(=O)=O)nc3)cc2NC(=O)c2c[nH]c(=O)cc2C(F)(F)F)C[C@H](C)N1C [Example 582, N-[4-fluoro-5-[2-(methanesulfonamido)pyrimidin-5-yl]-2-[(3R,5S)-3,4,5-trimethylpiperazin-1-yl]phenyl]-6-oxo-4-(trifluoromethyl)-1H-pyridine-3-carboxamide] | 8.24 |
| C[C@@H]1CN(c2cc(F)c(C3=CCCN(c4ncc(C#N)cn4)C3)cc2NC(=O)c2c[nH]c(=O)cc2C(F)(F)F)C[C@H](C)N1C [Example 583, N-[5-[1-(5-cyanopyrimidin-2-yl)-3,6-dihydro-2H-pyridin-5-yl]-4-fluoro-2-[(3R,5S)-3,4,5-trimethylpiperazin-1-yl]phenyl]-6-oxo-4-(trifluoromethyl)-1H-pyridine-3-carboxamide] | 9.06 |
| CN(CC1CC1)[C@@H]1CCN(c2cc(F)c(-c3cnc(N4CCOCC4)nc3)cc2NC(=O)c2c[nH]c(=O)cc2C(F)(F)F)C1 [Example 586, N-[4-fluoro-5-(2-morpholin-4-ylpyrimidin-5-yl)-2-[(3R)-3-[cyclopropylmethyl(methyl)amino]pyrrolidin-1-yl]phenyl]-6-oxo-4-(trifluoromethyl)-1H-pyridine-3-carboxamide] | 7.81 |
| CN(CC1CC1)[C@@H]1CCN(c2cc(F)c(-c3cnc(N4CCOCC4)nc3)cc2NC(=O)c2cn(C)c(=O)cc2C(F)(F)F)C1 [Example 587, N-[4-fluoro-5-(2-morpholin-4-ylpyrimidin-5-yl)-2-[(3R)-3-[cyclopropylmethyl(methyl)amino]pyrrolidin-1-yl]phenyl]-1-methyl-6-oxo-4-(trifluoromethyl)pyridine-3-carboxamide] | 6.60 |
| C[C@@H]1CN(c2cc(F)c(C3=CCN(c4ncc(C#N)cn4)C3)cc2NC(=O)c2c[nH]c(=O)cc2C(F)(F)F)C[C@H](C)N1C [Example 588, N-[5-[1-(5-cyanopyrimidin-2-yl)-2,5-dihydropyrrol-3-yl]-4-fluoro-2-[(3R,5S)-3,4,5-trimethylpiperazin-1-yl]phenyl]-6-oxo-4-(trifluoromethyl)-1H-pyridine-3-carboxamide] | 8.76 |
| C[C@@H]1CN(c2cc(F)c(-c3ccc(F)c(C(N)=O)c3)cc2NC(=O)c2cn(C)c(=O)cc2C(F)(F)F)C[C@H](C)N1C [Example 589, N-[5-(3-carbamoyl-4-fluorophenyl)-4-fluoro-2-[(3R,5S)-3,4,5-trimethylpiperazin-1-yl]phenyl]-1-methyl-6-oxo-4-(trifluoromethyl)pyridine-3-carboxamide] | 8.13 |
| C[C@@H]1CN(c2cc(F)c(-c3ccc(C(N)=O)c(F)c3)cc2NC(=O)c2cn(C)c(=O)cc2C(F)(F)F)C[C@H](C)N1C [Example 590, N-[5-(4-carbamoyl-3-fluorophenyl)-4-fluoro-2-[(3R,5S)-3,4,5-trimethylpiperazin-1-yl]phenyl]-1-methyl-6-oxo-4-(trifluoromethyl)pyridine-3-carboxamide] | 8.48 |
| C[C@@H]1CN(c2cc(F)c(-c3ccc(F)c(C(N)=O)c3)cc2NC(=O)c2cn(C)c(=O)cc2C(F)F)C[C@H](C)N1C [Example 591, N-[5-(3-carbamoyl-4-fluorophenyl)-4-fluoro-2-[(3R,5S)-3,4,5-trimethylpiperazin-1-yl]phenyl]-4-(difluoromethyl)-1-methyl-6-oxopyridine-3-carboxamide] | 7.81 |
| C[C@@H]1CN(c2cc(F)c(-c3ccc(C(N)=O)c(F)c3)cc2NC(=O)c2cn(C)c(=O)cc2C(F)F)C[C@H](C)N1C [Example 592, N-[5-(4-carbamoyl-3-fluorophenyl)-4-fluoro-2-[(3R,5S)-3,4,5-trimethylpiperazin-1-yl]phenyl]-4-(difluoromethyl)-1-methyl-6-oxopyridine-3-carboxamide] | 8.17 |
| CC(C)OC(=O)N1CCC=C(c2cc(NC(=O)c3c[nH]c(=O)cc3C(F)(F)F)c(N3C[C@@H](C)N(C)[C@@H](C)C3)cc2F)C1 [Example 601, propan-2-yl 5-[2-fluoro-5-[[6-oxo-4-(trifluoromethyl)-1H-pyridine-3-carbonyl]amino]-4-[(3R,5S)-3,4,5-trimethylpiperazin-1-yl]phenyl]-3,6-dihydro-2H-pyridine-1-carboxylate] | 9.57 |
| CC(C)OC(=O)N1CC=C(c2cc(NC(=O)c3c[nH]c(=O)cc3C(F)(F)F)c(N3C[C@@H](C)N(C)[C@@H](C)C3)cc2F)CC1 [Example 602, propan-2-yl 4-[2-fluoro-5-[[6-oxo-4-(trifluoromethyl)-1H-pyridine-3-carbonyl]amino]-4-[(3R,5S)-3,4,5-trimethylpiperazin-1-yl]phenyl]-3,6-dihydro-2H-pyridine-1-carboxylate] | 9.32 |
| CNC(=O)c1ccc(-c2cc(NC(=O)c3c[nH]c(=O)cc3C(F)(F)F)c(N3C[C@@H](C)N(C)[C@@H](C)C3)cc2F)cc1F [Example 603, N-[4-fluoro-5-[3-fluoro-4-(methylcarbamoyl)phenyl]-2-[(3R,5S)-3,4,5-trimethylpiperazin-1-yl]phenyl]-6-oxo-4-(trifluoromethyl)-1H-pyridine-3-carboxamide] | 8.96 |
